Measurements as given in patent US20220096561A1, “INHIBITING OR ALLEVIATING AGENT FOR INFLAMMATION IN THE BRAIN” (NIPPON ZOKI PHARMACEUTICAL CO., LTD., priority 2019, published 2022).

Assays:
Assay type in all cases: cell-based, murine
BV-2 cell [1] = assay: p-p65 and p-IκB-α expression in LPS-stimulated cells; conditions: LPS + NTP + ANA-12, FIG. 6F-H
Method: (§1) Immortal BV-2 murine microglial cells, a gift from Dr. Ying Chen of Sun Yat-sen Memorial Hospital, Sun Yat-sen University were cultured as described (refer Non-Patent Document 2). BV-2 cultures were treated with 0.1 NU/mL NTP, then given lipopolysaccharides (1000 ng/mL, LotL2880, O55:B5, Sigma-Aldrich, St. Louis, Mo., USA) 12 h later.
Western blotting and semi-quantitative analyses were performed following previously described procedures (refer Liao W, Jiang M J, Li M, Jin C L, Xiao S H, Fan S N, Fang W L, Zheng Y Q and Liu J. Magnesium Elevation Promotes Neuronal Differentiation While Suppressing Glial Differentiation of Primary Cultured Adult Mouse Neural Progenitor Cells through ERK/CREB Activation. Frontiers in Neuroscience 2017; 11:). In brief, proteins in cerebral cortex and hippocampus were extracted with lysis buffer for 30 min, followed by centrifugation at 14,000 rpm for 15 min at […] to obtain the supernatant for western blot analysis. Primary antibodies and dilution rates used were listed as follow: NF-κB (p65), 1:1000; p-IκBα, 1:500 and β-actin, 1:1000. Primary antibodies against NF-κB (p65), p-IκBα and β-actin were purchased from Cell Signaling Technology Inc (MA, USA). […] The quantification of protein expression was analyzed by Image J (National Institutes of Health, Md., USA).

BV-2 cell [2] = assay: BDNF level in LPS-treated BV-2 cells; conditions: LPS + NTP + ANA12, FIG. 6E
Method: as §1

BV-2 cell [3] = assay: IL-1β, IL-6, TNF-α expression in LPS-treated BV-2 cells; conditions: LPS + NTP, pre-treated with 10 uM ANA12 1 h before NTP, FIG. 6A-C
Method: as §1

For `O=C(Nc1ccccc1C(=O)NC1CCCCNC1=O)c1cc2ccccc2s1` (stereo not drawn) [ANA12], the “activation of p-IκB-α” value (BV-2 cell [1]) was “abolished by ANA-12”, the “activation of p-P65” value (BV-2 cell [1]) was “abolished by ANA-12” and the “effect of NTP on BDNF” value (BV-2 cell [2]) was “abolished by ANA12”. The “expression of IL-1β” value (BV-2 cell [3]) was “increased after ANA12 administration”, the “expression of IL-6” value (BV-2 cell [3]) was “increased after ANA12 administration” and the “expression of TNF-α” value (BV-2 cell [3]) was “increased after ANA12 administration”.
